Paper PMC11852235, “Discovery of Effective Inhibitors Against Phosphodiesterase 9, a Potential Therapeutic Target of Alzheimer’s Disease with Antioxidant Capacities” (Antioxidants, 2025)
Several values for one entry are separate records, joined by “and”; a condition that tells them apart may be missing. Equal entries are not always repeated. Where two headings read alike, the source gives them in different places.

Key:
[1] = Antioxidant activity, ORAC-FL method; conditions: Trolox as standard
Experimental: The modified Oxygen Radical Absorbance Capacity Fluorescein (ORAC-FL) method was used for antioxidant activity test. In brief, the mixture of test compounds (20 μL) and fluorescein (120 μL, final concentration of 150 nM) was added into a black 96-well plate and incubated for 15 min at 37 °C. Then, 60 μL of 2,2′-azobis(2-amidinopropane) dihydrochloride (AAPH) solution (12 mM) was added rapidly to induce the reaction. The fluorescence with an excitation wavelength of 485 nm and emission at 535 nm was measured in Spectrafluor Plus plate reader (Tecan, Crailsheim, Germany) every minute for 4 h. Integration of the area under the curve (AUC) was […] 1 to 8 μM Trolox was used as a standard. Each compound was tested at 1–10 μM at least in three independent assays. The ORAC-FL values of each compound were calculated according to Equation (1) and expressed as Trolox equivalents.(1) ORAC-FL value=AUCsample−AUCblank/AUCTrolox−AUCblank×ConcentrationTrolox/Concentrationsample

[2] = target: T1, PDE9 (catalytic domain of PDE9A2) (Homo sapiens, UniProt O76083); assay: Enzymatic assay against PDE9 (3H-cGMP hydrolysis, scintillation counting); assay type: biochemical; conditions: for inhibition at 0.01 µM: at a concentration of 0.01 μM
T1 construct: PDE9 recombinant catalytic domain (amino acid 181–506); made in house; host or cells: E. coli BL21 (Codonplus)
Experimental: In brief, E. coli strain BL21 (Codonplus), which carrying with recombinant pET-PDE9A2 plasmid, was grown in LB medium (containing 100 μg/mL ampicillin and 0.4% glucose) at 37 °C until an OD600 achieved 0.6–0.8. Then, the temperature was turned down to 15 °C, and 0.1 mM iso-propyl-b-D-thiogalactopyranoside was added to LB medium to induce the expression of PDE9A2 protein. Bacteria were induced for 20 h and collected for purified PDE9A2 recombinant protein by a Ni-NTA column (Qiagen, Venlo, The Netherlands).
As for the enzymatic assays, ^3H-cGMP (20,000–30,000 cpm, GE Healthcare), the substrate for enzymatic assays against PDE9A2, were diluted in an assay buffer (containing 50 mM Tris-HCl (pH 8.0), 10 mM MgCl2, and 1 mM DTT). And then, the substrate ^3H-cGMP, catalytic domain of PDE9A2, and different concentrations of tested compounds were incubated at room temperature for 15 min. To terminate the reaction, 0.2 M ZnSO4 and 0.2 N Ba(OH)2 were added to the mixture, leaving unreacted ^3H-cGMP in the supernatant. […] Each compound was measured at a minimum of eight concentrations for the IC50 calculation and repeated at least three times.
4.Enzymatic assays against PDE9
The assay buffer contains 50 mM Tris-HCl (pH 8.0), 10 mM MgCl2 or 4 mM MnCl2, 1 mM DTT, and 10-20 nM 3H-cGMP (15000−30000 cpm/assay, CPM control). The reaction was carried out at room temperature for 15 min and then terminated by addition of 0.2 M ZnSO4. The reaction product 3H-GMP was precipitated out by […], whereas unreacted 3H-cGMP remained in the supernatant. The radioactivity in the supernatant was measured in 2.5 […]
(CPMenzyme). For the measurement of IC50 of inhibitors, at least seven concentrations of inhibitors were used in the presence of 3H-cGMP. The enzyme concentration in a range of 10− 100 ng/mL, which hydrolyzed 50- 70% of the substrate, was chosen for each inhibitory assay. The radioactivity was recorded as CPMinhibitor. The IC50 values for PDE9 were calculated using a nonlinear regression analysis.
Inhibition = […] × 100%

[3] = 0.25 h, read-out: Inhibition ratio against PDE9
[4] = 0.25 h, at a concentration of 0.1 μM, read-out: Inhibition ratio against PDE9
[5] = 6.25 nM, read-out: Inhibition (PDE9 dose-response, single runs)
[6] = 25 nM, read-out: Inhibition (PDE9 dose-response, single runs)
[7] = 50 nM, read-out: Inhibition (PDE9 dose-response, single runs)
[8] = 100 nM, read-out: Inhibition (PDE9 dose-response, single runs)
[9] = 200 nM, read-out: Inhibition (PDE9 dose-response, single runs)
[10] = 400 nM, read-out: Inhibition (PDE9 dose-response, single runs)
[11] = 800 nM, read-out: Inhibition (PDE9 dose-response, single runs)
[12] = 1600 nM, read-out: Inhibition (PDE9 dose-response, single runs)

T1 sequence (O76083 241-566): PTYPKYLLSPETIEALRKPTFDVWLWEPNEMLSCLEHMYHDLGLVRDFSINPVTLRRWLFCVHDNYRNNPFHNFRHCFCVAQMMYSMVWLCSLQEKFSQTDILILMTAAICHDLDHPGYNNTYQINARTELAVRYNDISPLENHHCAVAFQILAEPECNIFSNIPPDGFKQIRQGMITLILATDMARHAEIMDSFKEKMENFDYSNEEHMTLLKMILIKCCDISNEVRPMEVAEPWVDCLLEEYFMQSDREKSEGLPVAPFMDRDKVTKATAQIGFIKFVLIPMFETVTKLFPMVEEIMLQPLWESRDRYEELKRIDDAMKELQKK

| Structure (SMILES) | ORAC [1] | inhibition at 0.01 µM [2, 3] [%] | inhibition at 0.1 µM [2, 4] [%] | IC50 [2] | Inhibition (PDE9 dose-response, single runs) ([2]; 6.25 nM, 0.00625 µM) | Inhibition (PDE9 dose-response, single runs) ([2]; 12.5 nM, 0.0125 µM) | Inhibition (PDE9 dose-response, single runs) ([2]; 25 nM, 0.025 µM) | Inhibition (PDE9 dose-response, single runs) ([2]; 50 nM, 0.05 µM) | Inhibition (PDE9 dose-response, single runs) ([2]; 100 nM, 0.1 µM) [%] | inhibition at 0.1 µM [2, 8] [%] | Inhibition (PDE9 dose-response, single runs) ([2]; 200 nM, 0.2 µM) [%] | inhibition at 0.2 µM [2, 9] [%] | Inhibition (PDE9 dose-response, single runs) ([2]; 400 nM, 0.4 µM) [%] | inhibition at 0.4 µM [2, 10] [%] | Inhibition (PDE9 dose-response, single runs) ([2]; 800 nM, 0.8 µM) [%] | inhibition at 0.8 µM [2, 11] [%] | Inhibition (PDE9 dose-response, single runs) ([2]; 1600 nM, 1.6 µM) [%] | inhibition at 1.6 µM [2, 12] [%] | other results |
| --- | --- | --- | --- | --- | --- | --- | --- | --- | --- | --- | --- | --- | --- | --- | --- | --- | --- | --- | --- |
| CC(Cc1c[nH]c2ccccc12)Nc1nc2c(cnn2C2CCCC2)c(=O)[nH]1 (stereo not shown) [Compound 17a, 6-((1-(1H-indol-3-yl)propan-2-yl)amino)-1-cyclopentyl-1,5-dihydro-4H-pyrazolo[3,4-d]pyrimidin-4-one] | 0.37 ± 0.04 μmol of Trolox equiv/μmol tested compound | 68 | 78 |  |  |  |  |  |  |  |  |  |  |  |  |  |  |  |  |
| O=c1[nH]c(NCCc2c[nH]c3ccc(O)cc23)nc2c1cnn2C1CCCC1 [Compound 17b, 1-cyclopentyl-6-((2-(5-hydroxy-1H-indol-3-yl)ethyl)amino)-1,5-dihydro-4H-pyrazolo[3,4-d]pyrimidin-4-one] |  | 16 |  | 91.1 nM and 91 nM | 9.16% | 9.23% and 4.22% | 21.21% | 34.04% | 49.42 | 55.3 | 66.06 | 67.7 | 76.31 | 82.6 | 86.82 | 90.6 | 94.94 | 95.1 | inhibition at 0.00625 µM [2, 5]: 6.08%; inhibition at 0.025 µM [2, 6]: 24.1%; inhibition at 0.05 µM [2, 7]: 36.3% |
| COc1ccc2[nH]cc(CC(C)Nc3nc4c(cnn4C4CCCC4)c(=O)[nH]3)c2c1 (stereo not shown) [Compound 17c, 1-cyclopentyl-6-((1-(5-methoxy-1H-indol-3-yl)propan-2-yl)amino)-1,5-dihydro-4H-pyrazolo[3,4-d]pyrimidin-4-one] |  | 84 |  | 1.8 nM |  |  |  |  |  |  |  |  |  |  |  |  |  |  |  |
| COc1ccc2[nH]cc(CC(C)Nc3nc4c(cnn4C4CCOCC4)c(=O)[nH]3)c2c1 (stereo not shown) [Compound 17d, 6-((1-(5-methoxy-1H-indol-3-yl)propan-2-yl)amino)-1-(tetrahydro-2H-pyran-4-yl)-1,5-dihydro-4H-pyrazolo[3,4-d]pyrimidin-4-one] |  | 13 |  | 89 nM | 13.00% | 26.71% | 28.77% | 37.79% | 60.91 | 61.6 | 75.64 | 77.6 | 87.67 | 90.5 | 94.30 | 96.4 | 97.54 | 108 | inhibition at 0.00625 µM [2, 5]: 13.8%; inhibition at 0.0125 µM ([2]; 12.5 nM, read-out: Inhibition (PDE9 dose-response, single runs)): 34.7%; inhibition at 0.025 µM [2, 6]: 26.4%; inhibition at 0.05 µM [2, 7]: 43.8% |
| CC(CCc1c[nH]c2ccccc12)Nc1nc2c(cnn2C2CCCC2)c(=O)[nH]1 (stereo not shown) [Compound 17e, 6-((4-(1H-indol-3-yl)butan-2-yl)amino)-1-cyclopentyl-1,5-dihydro-4H-pyrazolo[3,4-d]pyrimidin-4-one] | 0.33 ± 0.002 μmol of Trolox equiv/μmol tested compound | 67 | 83 |  |  |  |  |  |  |  |  |  |  |  |  |  |  |  |  |
| CC(CC1CNc2ccccc21)Nc1nc2c(cnn2C2CCCC2)c(=O)[nH]1 (stereo not shown) [Compound 17f, 1-cyclopentyl-6-((1-(indolin-3-yl)propan-2-yl)amino)-1,5-dihydro-4H-pyrazolo[3,4-d]pyrimidin-4-one] | 0.66 ± 0.04 μmol of Trolox equiv/μmol tested compound | 59 | 67 |  |  |  |  |  |  |  |  |  |  |  |  |  |  |  |  |
| COc1ccc2[nH]cc(CN[C@H](C)c3nc4c(cnn4C4CCCC4)c(=O)[nH]3)c2c1 [Compound 18c, (R)-1-cyclopentyl-6-(1-(((5-methoxy-1H-indol-3-yl)methyl)amino)ethyl)-1,5-dihydro-4H-pyrazolo[3,4-d]pyrimidin-4-one] |  |  | < 30 | 194 nM | -0.81% and -1.99% | 4.63% and -3.63% | -0.82% and 5.95% | -1.13% and 3.15% | 16.13 | 9.05 | 51.73 | 42.9 | 69.38 | 75.3 | 80.02 | 90.6 | 87.34 | 90.2 |  |
| COc1ccc2c(c1)c(CN[C@H](C)c1nc3c(cnn3C3CCCC3)c(=O)[nH]1)cn2C [Compound 18d, (R)-1-cyclopentyl-6-(1-(((5-methoxy-1-methyl-1H-indol-3-yl)methyl)amino)ethyl)-1,5-dihydro-4H-pyrazolo[3,4-d]pyrimidin-4-one] |  |  |  | 214 nM |  |  |  |  |  |  |  |  |  |  |  |  |  |  | Inhibition (PDE9 dose-response, single runs) ([2]; 6.4875 nM, 0.0064875 µM): 4.86% and 1.81%; Inhibition (PDE9 dose-response, single runs) ([2]; 12.975 nM, 0.012975 µM): 9.60%; inhibition at 0.012975 µM ([2]; 12.975 nM, read-out: Inhibition (PDE9 dose-response, single runs)): 4.99%; Inhibition (PDE9 dose-response, single runs) ([2]; 25.95 nM, 0.02595 µM): 11.54%; inhibition at 0.02595 µM ([2]; 25.95 nM, read-out: Inhibition (PDE9 dose-response, single runs)): 16.6%; Inhibition (PDE9 dose-response, single runs) ([2]; 51.9 nM, 0.0519 µM): 21.64%; inhibition at 0.0519 µM ([2]; 51.9 nM, read-out: Inhibition (PDE9 dose-response, single runs)): 20.2%; Inhibition (PDE9 dose-response, single runs) ([2]; 103.8 nM, 0.1038 µM): 34.81%; inhibition at 0.1038 µM ([2]; 103.8 nM, read-out: Inhibition (PDE9 dose-response, single runs)): 33.4%; Inhibition (PDE9 dose-response, single runs) ([2]; 207.6 nM, 0.2076 µM): 49.32%; inhibition at 0.2076 µM ([2]; 207.6 nM, read-out: Inhibition (PDE9 dose-response, single runs)): 54.3%; Inhibition (PDE9 dose-response, single runs) ([2]; 415.2 nM, 0.4152 µM): 80.76%; inhibition at 0.4152 µM ([2]; 415.2 nM, read-out: Inhibition (PDE9 dose-response, single runs)): 86.5%; Inhibition (PDE9 dose-response, single runs) ([2]; 830.4 nM, 0.8304 µM): 88.96%; inhibition at 0.8304 µM ([2]; 830.4 nM, read-out: Inhibition (PDE9 dose-response, single runs)): 93% |
